Converted amounts (≈) assume the structure as drawn. Where two headings read alike, the source gives them in different places.
Columns and labels:
[1] = system: M. tuberculosis V-591; assay: MIC against M. tuberculosis strains, agar dilution; assay type: cell-based, Mycobacterium tuberculosis; conditions: Middle Brook 7H10 + OADC, 37° C., 14-21 days
[2] = system: M. tuberculosis PC; assay: MIC against M. tuberculosis strains, agar dilution; assay type: cell-based, Mycobacterium tuberculosis; conditions: S. No. 17 Mt-, Middle Brook 7H10 + OADC, 37° C., 14-21 days
[3] = system: M. tuberculosis SGPGI; assay: MIC against M. tuberculosis strains, agar dilution; assay type: cell-based, Mycobacterium tuberculosis; conditions: S. No. 06 Mt-, Middle Brook 7H10 + OADC, 37° C., 14-21 days
[4] = system: M. intracellulare F21/12; assay: MIC against MAC strains, agar dilution; assay type: cell-based; conditions: S. No. 08 Mi-3, M. intracellulare F21/12, Middle Brook 7H10 + OADC, 37° C., 14-21 days
[5] = system: M. tuberculosis M-164; assay: MIC against M. tuberculosis strains, agar dilution; assay type: cell-based, Mycobacterium tuberculosis; conditions: Middle Brook 7H10 + OADC, 37° C., 14-21 days
[6] = system: M. avium intracellulare 540/96; assay: MIC against MAC strains, agar dilution; assay type: cell-based; conditions: S. No. 12 Mai-4, M. avium intracellulare 540/96, Middle Brook 7H10 + OADC, 37° C., 14-21 days
[7] = system: Salmonella 205; assay: MIC, agar incorporation method; assay type: cell-based; conditions: S. No. 26, Salmonella 205; read-out: MIC
Method: The compounds of the invention display antibacterial activity when tested by the agar incorporation method. The following minimum inhibitory concentrations (μg/ml) were obtained for representative compounds of the invention which are given below in the following tables.
Briefly, the compounds were dissolved in DMSO and doubling dilution of the compounds were incorporated into Meer Hilton agar before solidification. Inoculum was prepared by suspending 4 to 5 colonies into 5 ml of normal saline solution and adjusting the turbidity to 0.5 Macfarland turbidity standard tables (1.5×10^8 CFU/ml), after appropriate dilutions, 10^4 CFU/spot was transfered into the surface of dried plate and incubated for 18 hours (24 hours for MRSN studies). The concentration showing no growth of the inoculated culture was recorded as the MIC. Appropriate ATCC standard strains were simultaneously tested and result recorded only when the MIC's against standard antibiotics were within the acceptable range.

[8] = system: H. influenzae 1745; assay: MIC against Haemophilus strains; assay type: cell-based; conditions: Haemophilus influenzae; s. No. 9, H. influenzae 1745; read-out: MIC
[9] = system: S. epidermidis (MRSE)32965; assay: MIC, agar incorporation method; assay type: cell-based, Staphylococcus epidermidis; conditions: Staphylococcus epidermidis, MRSE
[10] = system: H. influenzae 35056; assay: MIC against Haemophilus strains; assay type: cell-based; conditions: Haemophilus influenzae; s. No. 1, H. influenzae 35056; read-out: MIC
[11] = system: S. aureus (Smith 49951); assay: MIC, agar incorporation method; assay type: cell-based, Staphylococcus aureus; conditions: Staphylococcus aureus
[12] = system: S. pneumoniae AB-3; assay: MIC, agar incorporation method; assay type: cell-based, Streptococcus pneumoniae; conditions: Streptococcus pneumoniae, AB3
[13] = system: S. aureus (MRSA) ST450; assay: MIC, agar incorporation method; assay type: cell-based, Staphylococcus aureus; conditions: Staphylococcus aureus
[14] = system: S pneumoniae 1294.; assay: MIC, agar incorporation method; assay type: cell-based, Streptococcus pneumoniae; conditions: Streptococcus pneumoniae, 1294.
[15] = system: S. pneumoniae 217; assay: MIC, agar incorporation method; assay type: cell-based, Streptococcus pneumoniae; conditions: Streptococcus pneumoniae, 217
[16] = system: Moraxella cata. M2; assay: MIC, agar incorporation method; assay type: cell-based
[17] = system: S. pneumoniae CS 1687; assay: MIC, agar incorporation method; assay type: cell-based, Streptococcus pneumoniae; conditions: Streptococcus pneumoniae, CS1687
[18] = system: S. pneumoniae AB 34; assay: MIC, agar incorporation method; assay type: cell-based, Streptococcus pneumoniae; conditions: Streptococcus pneumoniae, AB34
[19] = system: (MRSA) 562; assay: MIC, agar incorporation method; assay type: cell-based, Staphylococcus aureus; conditions: Staphylococcus aureus
[20] = system: S. pneumoniae 1256; assay: MIC, agar incorporation method; assay type: cell-based, Streptococcus pneumoniae; conditions: Streptococcus pneumoniae
[21] = system: S. pneumoniae AB 31; assay: MIC, agar incorporation method; assay type: cell-based, Streptococcus pneumoniae; conditions: Streptococcus pneumoniae, AB31
[22] = system: S. pneumoniae 1251; assay: MIC, agar incorporation method; assay type: cell-based, Streptococcus pneumoniae; conditions: Streptococcus pneumoniae, 1251
[23] = system: S. pneumoniae 1275; assay: MIC, agar incorporation method; assay type: cell-based, Streptococcus pneumoniae; conditions: Streptococcus pneumoniae
[24] = system: E. faecalis SP 346 (VRE); assay: MIC, agar incorporation method; assay type: cell-based; conditions: Enterococcus faecalis
[25] = system: S. pneumoniae ATCC 49619; assay: MIC, agar incorporation method; assay type: cell-based, Streptococcus pneumoniae; conditions: Streptococcus pneumoniae, ATCC49619
[26] = system: S. aureus SG 511; assay: MIC, agar incorporation method; assay type: cell-based, Staphylococcus aureus; conditions: Staphylococcus aureus, SG511
[27] = system: S. aureus ATCC29213; assay: MIC, agar incorporation method; assay type: cell-based, Staphylococcus aureus; conditions: Staphylococcus aureus
[28] = system: S. epidermidis (MRSE) 23760; assay: MIC, agar incorporation method; assay type: cell-based, Staphylococcus epidermidis; conditions: Staphylococcus epidermidis, MRSE
[29] = Mycobacterium tuberculosis, V591, S. No. 13 Mt-, read-out: MIC
[30] = Mycobacterium tuberculosis, read-out: MIC
[31] = Mycobacterium tuberculosis, M164, S. No. 10 Mt-, read-out: MIC

In the case of CO[C@H]1/C=C/O[C@@]2(C)Oc3c(C)c(O)c4c(O)c(c(/C=N/N5CCN(C)CC5)c(O)c4c3C2=O)NC(=O)/C(C)=C\C=C\[C@H](C)[C@H](O)[C@@H](C)[C@@H](O)[C@@H](C)[C@H](OC(C)=O)[C@@H]1C [RIF], the MIC ([1]; S. No. 13 Mt-) is reported as >32 µg/mL, the MIC [2] is reported as 2.0 µg/mL and the MIC [3] is reported as >32 µg/mL. For the same molecule, the MIC [4] was 4.0 µg/mL, the MIC ([5]; S. No. 10 Mt-) was >32 µg/mL and the MIC [6] was >32 µg/mL.

Work on C[C@@H]1CN(c2c(F)c(N)c3c(=O)c(C(=O)O)cn(C4CC4)c3c2F)C[C@H](C)N1 [SPAR] yielded an MIC ([1]; S. No. 13 Mt-) of 2.0 µg/mL, an MIC [2] of 8.0 µg/mL and an MIC [3] of 4.0 µg/mL. For the same molecule, the MIC [4] was 0.125 µg/mL, the MIC ([5]; S. No. 10 Mt-) was 1.0 µg/mL and the MIC [6] was 4.0 µg/mL.

CCc1cc(C(N)=S)ccn1 [ETH] was tested, and the MIC ([1]; S. No. 13 Mt-) was >32 µg/mL, the MIC [2] was 32 µg/mL and the MIC [3] was >32 µg/mL. The MIC [4] was 8.0 µg/mL, the MIC ([5]; S. No. 10 Mt-) was >32 µg/mL and the MIC [6] was 32 µg/mL.

With CC[C@H]1OC(=O)[C@H](C)[C@@H](O[C@H]2C[C@@](C)(OC)[C@@H](O)[C@H](C)O2)[C@H](C)[C@@H](O[C@@H]2O[C@H](C)C[C@H](N(C)C)[C@H]2O)[C@](C)(OC)C[C@@H](C)C(=O)[C@H](C)[C@@H](O)[C@]1(C)O [CLA] the MIC ([1]; S. No. 13 Mt-) was 32 µg/mL, the MIC [2] was 4.0 µg/mL and the MIC [3] was 32 µg/mL. For the same molecule, the MIC [4] was 1.0 µg/mL, the MIC ([5]; S. No. 10 Mt-) was 16 µg/mL and the MIC [6] was >32 µg/mL.

For NNC(=O)c1ccncc1 [INH], the MIC ([1]; S. No. 13 Mt-) was >32 µg/mL, the MIC [2] was 32 µg/mL and the MIC [3] was 16 µg/mL. For the same molecule, the MIC [4] was 32 µg/mL, the MIC ([5]; S. No. 10 Mt-) was >32 µg/mL and the MIC [6] was 4.0 µg/mL.

For CC(=O)NC[C@H]1CN(c2ccc(N3CCOCC3)c(F)c2)C(=O)O1 [Linezolid, reference compound], the MIC [7] was > 16 µg/mL, the MIC [1, 29] was > 32 µg/mL and the MIC [8] was 16 µg/mL (≈ 47.4 µM). For the same molecule, the MIC [9] was 1 µg/mL (≈ 2.96 µM), the MIC [2, 30] was 32 µg/mL and the MIC [10] was 8 µg/mL (≈ 23.7 µM). The MIC [3, 30] was > 32 µg/mL, the MIC [11] was 1 µg/mL (≈ 2.96 µM) and the MIC [12] was 0.25 µg/mL (≈ 0.741 µM). It also gave an MIC ([13]; MRSA) of 1 µg/mL (≈ 2.96 µM), an MIC [14] of 1 µg/mL (≈ 2.96 µM) and an MIC [15] of 1 µg/mL (≈ 2.96 µM). For the same molecule, the MIC ([16]; Moraxella, CATA.M2) was 4 µg/mL (≈ 11.9 µM), the MIC [17] was 1 µg/mL (≈ 2.96 µM) and the MIC [18] was 2 µg/mL (≈ 5.93 µM). It also gave an MIC ([19]; MRSA) of 1 µg/mL (≈ 2.96 µM), an MIC [20]; 1256 of 1 µg/mL (≈ 2.96 µM) and an MIC [21] of 1 µg/mL (≈ 2.96 µM). For the same molecule, the MIC [22] was 1 µg/mL (≈ 2.96 µM), the MIC [23]; 1275 was 1 µg/mL (≈ 2.96 µM) and the MIC ([24]; VRE) was 2 µg/mL (≈ 5.93 µM). For the same molecule, the MIC [5, 31] was 32 µg/mL, the MIC [25] was 1 µg/mL (≈ 2.96 µM) and the MIC [26] was 2 µg/mL (≈ 5.93 µM). The MIC ([27]; ATCC29213) was 2 µg/mL (≈ 5.93 µM) and the MIC [28] was 1 µg/mL (≈ 2.96 µM).

In the case of CC(=O)NC[C@H]1CN(c2ccc(N3CCN(c4ccc([N+](=O)[O-])s4)CC3)c(F)c2)C(=O)O1 [Compound No. 1, (S)—N-[[3-[3-Fluoro-4-[4-(5-nitro-2-thienyl)-1-piperazinyl]phenyl]-2-oxo-5-oxazolidinyl]methyl]acetamide], the MIC [7] is reported as > 16 µg/mL, the MIC [1, 29] is reported as 0.5 µg/mL and the MIC [8] is reported as 16 µg/mL (≈ 34.5 µM). For the same molecule, the MIC [9] was 0.125 µg/mL (≈ 0.27 µM), the MIC [2, 30] was 0.25 µg/mL and the MIC [10] was 8 µg/mL (≈ 17.3 µM). For the same molecule, the MIC [3, 30] was 1 µg/mL, the MIC ([11]; S. No. 9, S. aureus (Smith 49951), read-out: MIC) was 0.25 µg/mL (≈ 0.539 µM) and the MIC ([4]; Mycobacterium intracellulare, read-out: MIC) was 0.25 µg/mL. The MIC ([12]; S. No. 32, S. pneumoniae AB-3, read-out: MIC) was 0.06 µg/mL (≈ 0.129 µM), the MIC ([13]; S. No. 6, S. aureus (MRSA) ST450, read-out: MIC) was 0.25 µg/mL (≈ 0.539 µM) and the MIC [14] was 0.125 µg/mL (≈ 0.27 µM). It also gave an MIC [15] of 0.125 µg/mL (≈ 0.27 µM), an MIC ([16]; S. No. 59, Moraxella cata. M2, read-out: MIC) of 0.25 µg/mL (≈ 0.539 µM) and an MIC [17] of 0.125 µg/mL (≈ 0.27 µM). The MIC ([18]; S. No. 49, S. pneumoniae AB 34, read-out: MIC) was 0.25 µg/mL (≈ 0.539 µM), the MIC ([19]; S. No. 8, (MRSA) 562, read-out: MIC) was 0.25 µg/mL (≈ 0.539 µM) and the MIC ([20]; S. No. 56, S. pneumoniae 1256, read-out: MIC) was 0.25 µg/mL (≈ 0.539 µM). It also gave an MIC [21] of 0.125 µg/mL (≈ 0.27 µM), an MIC [22] of 0.125 µg/mL (≈ 0.27 µM) and an MIC ([23]; S. No. 57, S. pneumoniae 1275, read-out: MIC) of 0.06 µg/mL (≈ 0.129 µM). The MIC ([24]; S. No. 20, E. faecalis SP 346 (VRE), read-out: MIC) was 0.25 µg/mL (≈ 0.539 µM), the MIC [5, 31] was 0.5 µg/mL and the MIC ([25]; S. No. 48, S. pneumoniae ATCC 49619, read-out: MIC) was 0.06 µg/mL (≈ 0.129 µM). The MIC [26] was 0.125 µg/mL (≈ 0.27 µM), the MIC ([27]; S. No. 2, S. aureus ATCC29213, read-out: MIC) was 0.25 µg/mL (≈ 0.539 µM) and the MIC ([6]; Mycobacterium avium, read-out: MIC) was 1 µg/mL. For the same molecule, the MIC [28] was 0.125 µg/mL (≈ 0.27 µM).

Source: US20060293307A1, “Oxazolidinone derivatives as antimicrobials” (priority 2002, published 2006)
